Source: patent US6310095A, “Inhibitors of protein isoprenyl transferases” (University of Pittsburgh, priority 1998, dated 2001)
Structures can show the parent of a compound that is named as a salt.

Target: T1, protein farnesyltransferase (Rattus norvegicus, UniProt Q02293+Q04631)
T1 construct: Rat brain protein farnesyltransferase activity is measured; from tissue; host or cells: rat brain; purified according to Reiss et al., Cell 62:81-88 (1990), steps one through three
Assay: in vitro inhibition of protein farnesyltransferase (scintillation proximity assay, biotin-K Ras B fragment)
Assay type: biochemical
Settings: at 1 × 10^-6 M
From the text: The ability of the compounds of the invention to inhibit protein farnesyltransferase or protein geranylgeranyltransferase can be measured according to the method of Moores, et al., J. Biol. Chem. 266: 14603 (1991) or the method of Vogt, et al., J. Biol. Chem. 270:660-664 (1995). In addition, procedures for determination of the inhibition of farnesylation of the oncogene protein Ras are described by Goldstein, et al., J. Biol. Chem., 266:15575-15578 (1991) and by Singh in U.S. Pat. No. 5,245,061.
In addition, in vitro inhibition of protein farnesyltransferase may be measured by the following procedure. Rat brain protein farnesyltransferase activity is measured using an Amersham Life Science commercial scintillation proximity assay kit and substituting a biotin-K Ras B fragment (biotin-[…]CO2 H), 0.1 mM final concentration, for the biotin-lamin substrate provided by Amersham. The enzyme is purified according to Reiss, Y., et al., Cell, 62: 81-88 (1990), utilizing steps one through three.
The % inhibition of protein farnesyltransferase was determined for representative compounds of the invention.

| Compound | % inhibition of farnesyltransferase [%] |
| --- | --- |
| CSCC[C@H](NC(=O)c1ccc(Sc2ccc3ccccc3c2)cc1-c1ccccc1C)C(=O)O [Example 497] | 94 |
| CSCC[C@H](NC(=O)c1ccc(SCCc2ccccc2)cc1-c1ccccc1C)C(=O)O [Example 498] | 98 |

Next, values leading:

| % inhibition of farnesyltransferase [%] | Compound |
| --- | --- |
| 99 | CCOC[C@H](CC1CCCCC1)OCc1ccc(C(=O)N[C@@H](CCSC)C(=O)O)c(-c2ccccc2C)c1 [Example 525] |
| 99 | CSCC[C@H](NC(=O)c1ccc(CNC(CC2CCCCC2)C(O)C(O)CC(C)C)cc1-c1ccccc1C)C(=O)O (stereo partly drawn) [Example 529] |
| 94 | CSCC[C@H](NC(=O)c1ccc(COCc2ccoc2)cc1-c1ccccc1C)C(=O)O [Example 530] |
| 88 | CSCC[C@H](NC(=O)c1ccc(CS[C@H](CO)Cc2ccccc2)cc1-c1ccccc1)C(=O)O [Example 545] |

Same assay, conditions: at 1 × 10^-6 M; read-out: % inhibition of farnesyltransferase

| Compound | inhibition at 1 µM [%] |
| --- | --- |
| CSCC[C@H](NC(=O)c1ccc(NCCO)cc1-c1ccccc1)C(=O)O [Example 502, N-[4-N-2-hydroxyethylamino-2-phenylbenzoyl]methionine] | 24 |
| CSCC[C@H](NC(=O)c1ccc(NC(=O)[C@@H](N)COCc2ccccc2)cc1-c1ccccc1)C(=O)O [Example 503, N-[4-(N-2-amino-3-benzyloxypropionyl)amino-2-phenylbenzoyl]methionine] | 57 |
| CSCC[C@H](NC(=O)c1ccc(CN(Cc2ccccc2)Cc2ccco2)cc1-c1ccccc1C)C(=O)O [Example 504, N-[4-N-(furan-2-ylmethyl)-N-benzylaminomethyl-2-(2-methylphenyl)benzoyl]methionine lithium salt] | 90 |
| CSCC[C@H](NC(=O)c1ccc(CN(CCO)c2ccccc2)cc1-c1ccccc1)C(=O)O [Example 505] | 72 |
| CSCC[C@H](NC(=O)c1ccc(CN(CCc2ccccc2)c2ccccc2)cc1-c1ccccc1C)C(=O)O [Example 507] | 96 |
| CSCC[C@H](NC(=O)c1ccc(CN(CCCc2ccccc2)c2ccccc2)cc1-c1ccccc1C)C(=O)O [Example 508] | 95 |
| CSCC[C@H](NC(=O)c1ccc(CN(CC(c2ccccc2)c2ccccc2)c2ccccc2)cc1-c1ccccc1C)C(=O)O [Example 509] | 77 |
| CSCC[C@H](NC(=O)c1ccc(CN(CC23CC4CC(CC(C4)C2)C3)c2ccccc2)cc1-c1ccccc1C)C(=O)O [Example 510] | 84 |
| CSCC[C@H](NC(=O)c1ccc(CN(Cc2ccccc2)Cc2ccccc2)cc1-c1ccccc1C)C(=O)O [Example 512, N-[4-N,N-dibenzylaminomethyl-2-(2-methylphenyl)benzoyl]methionine lithium salt] | 94 |
| CSCC[C@H](NC(=O)c1ccc(CN(CCc2ccccc2)Cc2ccccc2)cc1-c1ccccc1C)C(=O)O [Example 513, N-[4-N-(2-phenylethyl)-N-benzylaminomethyl-2-(2-methylphenyl)benzoyl]methionine lithium salt] | 96 |
| CSCC[C@H](NC(=O)c1ccc(CN(Cc2ccccc2)Cc2cccc(Oc3ccccc3)c2)cc1-c1ccccc1C)C(=O)O [Example 514, N-[4-N-(3-phenoxybenzyl)-N-benzylaminomethyl-2-(2-methylphenyl)benzoyl]methionine lithium salt] | 94 |
| CSCC[C@H](NC(=O)c1ccc(CN(CCO)Cc2ccccc2)cc1-c1ccccc1)C(=O)O [Example 515, N-[4-N-(2-hydroxyethyl)-N-benzylaminomethyl-2-phenylbenzoyl]methionine lithium salt] | 72 |
| CSCC[C@H](NC(=O)c1ccc(CN(C)CCc2ccccc2)cc1-c1ccccc1C)C(=O)O [Example 516, N-[4-N-methyl-N-(2-phenyethyl)aminomethyl-2-(2-methylphenyl)benzoyl]methionine lithium salt] | 95 |

Second part, the compound after the results:

| inhibition at 1 µM [%] | Compound |
| --- | --- |
| 99 | CSCC[C@H](NC(=O)c1ccc(CNC(CC2CCCCC2)C(O)C(O)CC(C)C)cc1-c1ccccc1C)C(=O)O (stereo partly drawn) [Example 528] |
| 40 | CSCC[C@H](NC(=O)c1ccc(NC(=O)Cc2ccccc2)cc1-c1ccccc1C)C(=O)O [Example 540, N-[4-N-phenylacetylamino-2-(2-methylphenyl)benzoyl]methionine lithium salt] |
| 37 | CSCC[C@H](NC(=O)c1ccc(NC(=O)Cc2ccc(C)cc2)cc1-c1ccccc1C)C(=O)O [Example 541, N-[4-N-(4'-methylphenylacetyl)amino-2-(2-methylphenyl)benzoyl]methionine lithium salt] |
| 67 | COc1ccc(CC(=O)Nc2ccc(C(=O)N[C@@H](CCSC)C(=O)O)c(-c3ccccc3C)c2)cc1 [Example 542, N-[4-N-(4'-methoxyphenylacetyl)amino-2-(2-methylphenyl)benzoyl]methionine lithium salt] |
| 35 | COc1ccccc1CCC(=O)Nc1ccc(C(=O)N[C@@H](CCSC)C(=O)O)c(-c2ccccc2C)c1 [Example 544, N-[4-N-(3-(2-methoxyphenyl)propionoyl)amino-2-(2-methylphenyl)benzoyl]methionine lithium salt] |

Same assay, conditions: at 1 × 10^-7 M

| Compound | % inhibition of farnesyltransferase [%] |
| --- | --- |
| C=C(C)C1CC=C(COCc2ccc(C(=O)N[C@@H](CCSC)C(=O)O)c(-c3ccccc3C)c2)CC1 (stereo partly drawn) [Example 521] | 94 |
| CSCC[C@H](NC(=O)c1ccc(COC(Cc2ccccc2)Cc2ccccc2)cc1-c1ccccc1C)C(=O)[O-].[Li+] [Example 522] | 93 |
| CSCC[C@H](NC(=O)c1ccc(COCCc2ccco2)cc1-c1ccccc1C)C(=O)[O-].[Li+] [Example 531] | 74 |
| CSCC[C@H](NC(=O)c1ccc(COCc2ccc(C)o2)cc1-c1ccccc1C)C(=O)O [Example 532] | 88 |
| CSCC[C@H](NC(=O)c1ccc(COCc2cc3ccccc3o2)cc1-c1ccccc1C)C(=O)[O-].[Li+] [Example 533] | 91 |
| CSCC[C@H](NC(=O)c1ccc(COC(Cc2ccccc2)c2ccco2)cc1-c1ccccc1C)C(=O)[O-].[Li+] (stereo partly drawn) [Example 534] | 84 |
| CSCC[C@H](NC(=O)c1ccc(COCCc2ccc(-c3ccc(F)cc3)o2)cc1-c1ccccc1C)C(=O)[O-].[Li+] [Example 535] | 89 |
| CSCC[C@H](NC(=O)c1ccc(COCCc2ccc(-c3ccc(Cl)cc3)o2)cc1-c1ccccc1C)C(=O)[O-].[Li+] [Example 536] | 79 |
| CSCC[C@H](NC(=O)c1ccc(COCc2cncs2)cc1-c1ccccc1C)C(=O)[O-].[Li+] [Example 539] | 89 |

Same assay, conditions: at 1 × 10^-7 M; read-out: % inhibition of farnesyltransferase

| inhibition at 0.1 µM [%] | Compound |
| --- | --- |
| 82 | CSCC[C@H](NC(=O)c1ccc(CN(CCC23CC4CC(CC(C4)C2)C3)c2ccccc2)cc1-c1ccccc1C)C(=O)O [Example 511] |
| 89 | CSCC[C@H](NC(=O)c1ccc(CNCCc2c[nH]c3ccccc23)cc1-c1ccccc1C)C(=O)O [Example 519, N-[4-N-(2-indol-3-ylethyl)aminomethyl-2-(2-methylphenyl)benzoyl]methionine lithium salt] |
| 97 | CSCC[C@H](NC(=O)c1ccc(CN[C@H](CO)C2CCCCC2)cc1-c1ccccc1C)C(=O)O [Example 520, N-[4-N-(2-cyclohexyl-1-ethan-1-ol-2-yl)aminomethyl-2-(2-methylphenyl)benzoyl]methionine lithium salt] |
| 97 | CSCC[C@H](NC(=O)c1ccc(CNC(Cc2ccccc2)Cc2ccccc2)cc1-c1ccccc1C)C(=O)O [Example 523, N-[4-N-(1,3-diphenylpropan-2-yl)aminomethyl-2-(2-methylphenyl)benzoyl]methionine lithium salt] |
| 99 | CSCC[C@H](NC(=O)c1ccc(CNC(CC2CCCCC2)CC2CCCCC2)cc1-c1ccccc1C)C(=O)O [Example 524, N-[4-N-(1,3-dicyclohexylpropan-2-yl)aminomethyl-2-(2-methylphenyl)benzoyl]methionine lithium salt] |
| 96 | CSCC[C@H](NC(=O)c1ccc(CN[C@H](/C=C\CC(C)C)CC2CCCCC2)cc1-c1ccccc1C)C(=O)O [Example 526, N-[4-N-(1-Cyclohexyl-6-methylhept-3-en-2-yl)aminomethyl-2-(2-methylphenyl)benzoyl]methionine lithium salt] |
| 97 | CSCC[C@H](NC(=O)c1ccc(CN[C@H](CCCC(C)C)CC2CCCCC2)cc1-c1ccccc1C)C(=O)O [Example 527, N-[4-N-(1-Cyclohexyl-6-methylheptan-2-yl)aminomethyl-2-(2-methylphenyl)benzoyl]methionine lithium salt] |

Same assay, conditions: at 1 × 10^-8 M; read-out: % inhibition of farnesyltransferase

| inhibition at 0.01 µM [%] | Compound |
| --- | --- |
| 92 | CSCC[C@H](NC(=O)c1ccc(CN(Cc2ccccc2)c2cnccn2)cc1-c1ccccc1C)C(=O)O [Example 517, N-[4-N-benzyl-N-pyrazin-2-ylaminomethyl-2-(2-methylphenyl)benzoyl]methionine lithium salt] |
| 90 | CSCC[C@H](NC(=O)c1ccc(CN(CCc2ccccc2)c2cncnc2)cc1-c1ccccc1C)C(=O)O [Example 518, N-[4-N-(2-phenyethyl)-N-pyrimidin-5-ylaminomethyl-2-(2-methylphenyl)benzoyl]methionine lithium salt] |
